# Measured values: patent publication EP0593765A1, “6-SUBSTITUTED LIPID A ANALOG” (priority 1991, dated 1993)
# How the values were obtained:
# neutrophils = test: O₂⁻ production stimulating activity in neutrophils; assay type: cell-based, C3H/HeN mouse; conditions: compound 10 µg/mℓ, 37°C for 60 minutes, then cytochrome C (80 µM) and FMLP (0.1 µM); SOD-inhibitable cytochrome C reduction
# Procedure: The O₂⁻ production stimulating activity in neutrophils was evaluated in the following experimental system [see J. Exp. Med., Vol. 160, 1656 - 1671, 1984].
# In the peritoneal cavity of C3H/HeN mouse (male, 8 - 9 weeks old), physiological saline containing 0.2% (w/v) of casein was administered. Three hours later, peritoneal exudate cells (90% or more of which are neutrophils) induced in the peritoneal cavity were collected. These cells (1.7 × 10⁶ cells/ml/tube) were incubated in the presence of the compound of the invention (10 µg/mℓ) at 37°C for 60 minutes, and cytochrome C (80 µM) and fomyl-methionyl-leucyl-phenylalanine (FMLP) (0.1 µM) were added. After reaction for 10 minutes at 37°C in the presence of or in the absence of superoxide dismutase (SOD), the SOD-inhibitable cytochrome C reduction quantity was calculated from the difference of absorbances at 550 nm and 541.7 nm and the molar absorption coefficient (16.5 × 10³). The O₂⁻ production stimulating activity was expressed in the following stimulation percentage. [formula] The compounds of the invention presented the activities as shown in the below table.
# TNF = TNF producing activity (TNF in serum measured by damage of L929 cells); assay type: in vivo, ICR mouse; conditions: Corynebacterium parvum primed mouse, 10 µg/mouse intravenously nine days later, blood sampled 90 minutes later; reciprocal of serum dilution showing 50% cytotoxicity
# Procedure: The producing activity of TNF was evaluated in the following experiment.
# The first stimulating agent, 5% suspension (0.2 mℓ physiological saline) of Corynebacterium parvum was intravenously administered to ICR mouse (female, 6 - 7 weeks old). Nine days later, as the second stimulating agent, 10 µg/mouse of the compound of the invention was intravenously administered, and 90 minutes later, 0.5 to 1 mℓ of blood was sampled from the retro-orbital plexus. After being allowed to stand at room temperature for 5 to 6 hours, the blood was centrifuged at 7200 × g for 5 minutes to separate the serum. The serum was incubated at 56°C for 30 minutes for inactivation before use in the following experiment.
# The TNF activity in serum was determined by measuring the damage of L929 cells were adjusted to a concentration of 6 × 10⁴ cells/well (0.1 mℓ) on the culture medium of RPMI 1640 containing 10% of fetal bovine serum (FBS) and 2 µg/mℓ of actinomycin D, and were seeded on a 96-well plates. The serum was diluted in steps in the RPMI 1640 medium with 10% FBS, and added to the cell by 0.1 mℓ for each. After incubation for 48 hours at 37°C, the viable cells were fixed with methanol. After staining the cells with 0.2% crystal violet, the cells were dissolved in 1% sodium dodecyl sulfate (SDS), and the absorbance at 550 nm was measured. […]
# interleukin-1 (IL-1) = test: IL-1 producing activity (peripheral blood monocyte fraction; supernatant measured on A375 Met-Mix cells); assay type: cell-based, human; conditions: 50 µg of compound, 1 × 10⁶ cells/well, 48 hours at 37°C; reciprocal of supernatant dilution showing 50% inhibition
# Procedure: The producing activity of interleukin-1 (IL-1) was determined in the following experiment [see Biochem. Biopys. Res. Comm., Vol. 154, 1189 - 1196, 1988].
# From 50 mℓ of human peripheral blood, buffy coat was isolated, and peripheral blood monocyte fraction was obtained by using Lymphoprep (Wako Pharmaceutical). After hemolyzing mixed erythrocytes, cells were rinsed twice in Dulbecco's modified Eagle medium (MEM), and suspended in the RPMI 1640 medium containing 5% fetal cow serum (FCS) and 2.5 × 10⁻⁵ M 2-mercaptoethanol. The cells (1 × 10⁶ cells/well) were incubated in a 24-well plate containing 50 µg (50 µℓ) of the compound of the invention for 48 hours at 37°C in the presence of 5% carbon dioxide, and the supernatant of culture was samples as IL-1 induction supernatant. The IL-1 activity in the IL-1 induction supernatant was evaluated by measuring the growth inhibitory activity of IL-1 susceptible human melanoma cell A375 Met-Mix. The cells of A375 Met-Mix (2 × 10³ cells/0.1 mℓ/well) were suspended in RPMI 1640 medium containing 10% FCS, and the IL-1 induction supernatant (0.1 mℓ/well) diluted in steps was added and incubated in a 96-well plate for 96 hours at 37°C in the presence of 5% carbon dioxide. After incubation, the viable cells were fixed with methanol, and the cells were stained with 0.2% crystal violet, and the cells were dissolved with 1% SDS, and the absorbance at 550 nm was measured. […]
# spleen cells = test: Mitogen activity (³H-thymidine uptake into spleen cells); assay type: cell-based, C3H/HeN mouse; conditions: 48 hours incubation
# Procedure: The mitogen activity was evaluated in the following experiment [see Eur. J. Immunol., Vol. 14, 109 - 114, 1984].
# The spleen of C3H/HeN mouse (male, 6 - 10 weeks old) was aseptically removed, rubbed and loosened in MEM, and passed through stainless steel mesh, and spleen cells were sampled. After hemolyzing the erythrocytes mixed in the spleen cells, the cells were suspended in RPMI 1640 medium containing 5% FBS and presented for the experiment.
# The mitogen activity of the compound of the invention was evaluated by measuring the quantity of ³H-thymidine taken into the spleen cells treated with the compound of the invention. That is, the spleen cells adjusted to 5 × 10⁶ cells/well (100 µℓ) were seeded in a 96-well plate, and the compound of the invention (100 µℓ) at specified concentration was added to the spleen cells. After incubation for 48 hours at 37°C in the presence of 5% carbon dioxide, 1 µCi/well (50 µℓ) of ³H-thymidine was added to the incubated cells, which were incubated for further 4 hours. The cells were washed in phosphate buffer saline (PBS), and the titer of ³H-thymidine (radioactivity) taken in the cells was determined by liquid scintillation counter. […]
# [1] = Lethal toxicity by galactosamine loading; parameters: species or system C57BL mouse; conditions: mouse, in vivo, ip; 10 mg D-galactosamine hydrochloride intraperitoneally, compound in the caudal vein immediately after; observed to the seventh day; read-out: LD₅₀ (Galactosamine load)
# Procedure: The lethal toxicity by galactosamine loading was evaluated in the following experiment [see J. Biochem., Vol. 98, 395 - 406, 1985].
# To C57BL mouse (female, 7 weeks old), 10 mg of D-galactosamine hydrochloride was intraperitoneally administered, and the compound of the invention was administered in the caudal vein immediately after that.
# [2] = compound concentration 10 µg/mℓ
SMILES,Stimulation percentage (neutrophils),TNF titer in serum (TNF),IL-1 titer (interleukin-1 (IL-1)),Simulation index (spleen cells; compound concentration 1 µg/mℓ),Simulation index (spleen cells; [2]),LD50 at 168 h [1]
CCCCCCCCCCCCCCC(CCCCCCCCCCCC)C(=O)O[C@H]1[C@H](OP(=O)(O)O)[C@@H](COC(=O)CCC(=O)OC)OC[C@@H]1NC(=O)C[C@H](O)CCCCCCCCCCC (stereo partly shown) [Example 1],363,727800 U/mℓ,24 U/mℓ,14.8,26.5,0.0299 mg/kg
"CCCCCCCCCCCCCCC(CCCCCCCCCCCC)C(=O)O[C@H]1[C@H](OP(=O)(O)O)[C@@H](COC(=O)C(C)(C)C)OC[C@@H]1NC(=O)C[C@H](O)CCCCCCCCCCC (mixture of isomers) [Example 4, 1,5-Anhydro-2-deoxy-3-O-{(2RS)-2-dodecylhexadecanoyl}-2-{(3R)-3-hydroxytetradecanamido}-4-O-phosphono-6-O-pivaloyl-D-glucitol]",293,,16 U/mℓ,5.1,19.6,
"CCCCCCCCCCCCCCC(CCCCCCCCCCCC)C(=O)O[C@H]1[C@H](OP(=O)(O)O)[C@@H](CO)OC[C@@H]1NC(=O)C[C@H](O)CCCCCCCCCCC (stereo partly shown) [Control compound, reference compound]",80,538900 U/mℓ,15 U/mℓ,2.7,18.3,0.0028 mg/kg
